Assay results: EP0260606A2, “Medicament for curing neurotic disturbance or disorder comprising sialocylglycerolipid” (MECT CORPORATION, priority 1986, dated 1988)

Assays:
[1] = system: Mice Having Their Nerves Damaged by Mercurialism; assay: T-shaped labyrinth learning and memory in mice damaged by methylmercuric chloride; type: in vivo; details: for number of mice that reached the standard / number of mice subjected to test: 40 mg/kg,i.p./day for 10 days after MMC 6 mg/kg/day; for average time required for running into the safety area: 40 mg/kg,i.p./day after MMC, average ± S.D.
Experimental: Male Balb/c mice of 7-weeks age were pre-trained in a T-shaped labylinth 3 times a week so that they learned to go straight from the starting area to the safety area. Then, a group of mice was orally administered methylmercuric chloride (hereinafter referred to as MMC) at a dose of 6 mg/kg/day for 7 days after the mice had reached 8-weeks age. A control group of mice was administered 0.l ml/l0 g/day of saline. The day after the completion of administration of MMC, the compound (I) of the invention was intraperitoneally administered at a dose of 40 mg/kg/day for l0 days. From the 23rd day, the training in the T-shape labylinth was restarted, and the running actions of the mice were observed. At the 7th day (29th day from the beginning of the experiment) and 8th day (30th day from the beginning of the experiment) from the re-starting of the training, the number of mice of each group, that could be subjected to test, was counted; and the number of mice that reached the standard (running into the safety area within 5 seconds) for 8 or more times per ten times trials was counted. In the following Table 6, the number of mice subjected to test is shown as the denominator, and the number of mice that reached the standard is shown as the numerator. Meanwhile, the decrease in number of mice was caused by death due to poisoning from MMC. Also shown in Table 6 are the average times (second) ± S.D. […] required for running into the safety area.

[2] = system: rats having their sciatic nerves crushed; assay: Curing effect on rats with crushed sciatic nerve (distance between toes, weight of musculi soleus); type: in vivo, rat; details: for Recovery Rate (%) in Distance between the Fingers / Recovery Rate (%) in Weight of the Muscle: ip once per day, average ± S.D.; for Recovery Rate (%) in Weight of the Muscle: 28th Day
Experimental: The curing effect of the compound (I) of the invention on the rats having their sciatic nerves crushed, which were used as models caused by peripheral nervous disturbances, was assessed by examining (l) the change in action of the crushed hind leg and (2) the change in weight of the muscle as indicators for the modification of peripheral nerve and for the recovery course of the disturbance.
In the experiment, seven male Wister family rats (6 weeks age) were used per a group. The sciatic nerve of each rat was crushed in accordance with the method of Yamazu et al. (see Kiyomi Yamazu, Takenori Kaneko, Akifumi Kitahara and Isao Ohkawa, Journal of Japanese Pharmacological Society, 72, 259 - -268 (l976)) and in accordance with the method of Hasegawa et al. (see Kazuo Hasegawa, Naoji Mikuni and Yutaka Sakai, Journal of Japanese Pharmacological Society, 74, 72l - 734 (l978)). Specifically, under anesthesia with Pentobarbital (40 mg/kg, i.p.), the left sciatic nerve was exposed at the femur and the site 5 mm centrally from the branch portion between the N. tibialis and the N. suralis was crushed using a modified artery klemme having a width of 2 mm and gap of 0.l mm. Rats subjected to the operation were randomly dispensed to form the groups subjected to test.
The compound (I) of the invention was intraperitoneally administered one time per day from the day on which the nerve was crushed to the 22nd day. The control groups included a group administered with Mecobalamin (produced by Gedeon Richter Ltd.), a group administered with a 20% aqueous solution of propylene glycol (hereinafter referred to as 20% PG) which was used to dissolve the compound (I) of the invention, and a group administered with a 0.9% aqueous saline solution. The predetermined measurements were conducted with the lapse of time after the crushing operation (at the first, fourth, seventh, tenth, l4th, l5th, l7th, l9th 2lst and 28th days).
The distance between the toes was measured, since this is a good indicator showing the modification and recovery of the function of the nerve and the change thereof could conveniently measured with the lapse of time.
The measurement was conducted in accordance with the method of Hasegawa, (Hasegawa, K., Experientia, 34, 750 - 75l (l978)) by measuring the distance from the first toe to the fifth toe of the hind leg.
The ratio of the distance at the crushed side to the distance at the normal side was calculated as a percentage (%), the average values and the standard deviations (S.D.) being shown in Table 5.
It is known that removal of or disturbance in a certain nerve causes atrophy of the muscle controlled by the nerve, and the atrophy is gradually recovered by the recontrol by the nerve. For this reason, the quantitative change in weight of the muscle was selected as an indicator. At 28th day after the operation, the muscli soleus of both hind legs were extracted under anesthesia with Pentobarbital, and the weights of the muscles were weighed. The weight ratio of the muscli soleus at the crushed side to the muscli soleus at the normal side was calculated and represented by percentage (%).

CCCCCCCCCCCCCCOCC(COC1(C(=O)O)CC(O)C(NC(C)=O)C(C(O)C(O)CO)O1)OCCCCCCCCCCCCCC (stereo not drawn) [Compound (I)]
number of mice that reached the standard / number of mice subjected to test ([1]; 7th Day of re-started training, standard: safety area within 5 seconds in 8 or more of ten trials): 4/6
average time required for running into the safety area ([1]; 7th Day): 2.5 ± 0.8 s
number of mice that reached the standard / number of mice subjected to test ([1]; 8th Day of re-started training): 5/6
average time required for running into the safety area ([1]; 8th Day): 3.1 ± 0.7 s
remedy and restoration of learning and memory ability ([1]; result in words): had the effect of remedying and restoring the learning and memory ability
Recovery Rate (%) in Distance between the Fingers ([2]; 17th Day, 3 mg/kg, crushed side / normal side): 71.5 ± 5.5 %
Recovery Rate (%) in Distance between the Fingers ([2]; 17th Day, 30 mg/kg): 80.4 ± 9.6 %
Recovery Rate (%) in Distance between the Fingers ([2]; 19th Day, 3 mg/kg): 82.1 ± 9.7%
Recovery Rate (%) in Distance between the Fingers ([2]; 19th Day, 30 mg/kg): 90.3 ± 4.4 %
Recovery Rate (%) in Weight of the Muscle ([2]; 3 mg/kg, musculi soleus, crushed side / normal side): 82.8 ± 6.7%
Recovery Rate (%) in Weight of the Muscle ([2]; 30 mg/kg): 89.1 ± 5.7%
recovery of the distance between the toes and the weight of the musculi soleus ([2]; result in words): promoted the recovery to the normal values
